Assays:
CFTR-minus cells = experiment: Currents across patches excised from CFTR-minus (untransfected) cells; format: biochemical
Protocol: (§1) Cell culture DNA constructs and transfections. Baby hamster kidney (BHK) cells stably expressing wild type human CFTR (BHK-CFTR) were provided by J. Hanrahan (McGill University). BHK-CFTR cells were cultured in Dulbecco's modified Eagle's medium (DMEM (Mediatech)) supplemented with 5% fetal bovine serum (FBS) and 1 mM penicillin-streptomycin. The growth media for the BHK-CFTR cells also contained 0.5 mM methotrexate to maintain selection for CFTR-expressing cells (22). HEK-293T cells were transiently transfected with wild-type or mutant CFTR cDNA using the Lipofectamine transfection kit following manufacturer's recommendations (Invitrogen, Corp). HEK-293T cells were cultured in DMEM. All cells were grown on plastic coverslips for patch clamp recording and were used 2-3 days post-seeding. Electrophysiology and data analysis. Macroscopic and multi-channel currents were recorded in the excised, inside-out configuration. Patch pipettes were pulled from Corning 8161 glass to tip resistances of […] (macroscopic recordings) or 8-10 mOhm (micropatch studies). CFTR channels were activated following patch excision by exposure of the cytoplasmic face of the patch to catalytic subunit of protein kinase A (PKA; 110 U/ml; Promega) and Mg-ATP (1.5 mM). CFTR currents were recorded in symmetrical solution containing (in mM): 140 N-methyl-D-glucaniine-Cl, 3 MgCl2, 1 EGTA and 10 TES. The pH was adjusted to 7.3. Macroscopic currents were evoked using a ramp protocol from +80 to −80 mV with a 10 sec time period. Patches were held at −80 mV or +80 mV for micropatch (multichannel) recordings. All patch clamp experiments were performed at 21-23° C. Signals from macroscopic and single channel recording were filtered at 20 and 200 Hz, respectively. Data acquisition and analysis were performed using pCLAMP8 and pCLAMP9 software (Axon Instruments). Curve fitting for kinetic analysis was performed using Microcal Origin software. Averaged data are presented as mean +/−SEM. Statistical comparisons were made by performing unpaired t-tests unless otherwise indicated. Ussing Chamber Experiments-CFBE41o epithelial cells stably transfected with ΔF508-CFTR or transiently transfected with wild-type CFTR were cultured as electrically resistive monolayers and assayed in Ussing chambers as described (16). ΔF508-CFTR-expressing monolayers were grown at 27° C. for 2-3 days to enhance the surface expression of this temperature-sensitive mutant. A serosal-to-mucosal Cl^− gradient (120 to 1.2 mM) was imposed, followed by amiloride addition (100 μM) to block Na^+ currents. Compounds were added to both chambers at the indicated concentrations. A 3-mV voltage pulse was imposed every 100 s to monitor transepithelial resistance.

G551D-CFTR = target: T1, G551D-CFTR (Homo sapiens, UniProt P13569, G551D); experiment: Macroscopic currents in excised patches from HEK-293T cells expressing G551D-CFTR; format: biochemical; details: 10 μM
T1 construct: expressed in transfected cells; host or cells: HEK-293T, transient
T1 sequence (P13569 whole entry G551D): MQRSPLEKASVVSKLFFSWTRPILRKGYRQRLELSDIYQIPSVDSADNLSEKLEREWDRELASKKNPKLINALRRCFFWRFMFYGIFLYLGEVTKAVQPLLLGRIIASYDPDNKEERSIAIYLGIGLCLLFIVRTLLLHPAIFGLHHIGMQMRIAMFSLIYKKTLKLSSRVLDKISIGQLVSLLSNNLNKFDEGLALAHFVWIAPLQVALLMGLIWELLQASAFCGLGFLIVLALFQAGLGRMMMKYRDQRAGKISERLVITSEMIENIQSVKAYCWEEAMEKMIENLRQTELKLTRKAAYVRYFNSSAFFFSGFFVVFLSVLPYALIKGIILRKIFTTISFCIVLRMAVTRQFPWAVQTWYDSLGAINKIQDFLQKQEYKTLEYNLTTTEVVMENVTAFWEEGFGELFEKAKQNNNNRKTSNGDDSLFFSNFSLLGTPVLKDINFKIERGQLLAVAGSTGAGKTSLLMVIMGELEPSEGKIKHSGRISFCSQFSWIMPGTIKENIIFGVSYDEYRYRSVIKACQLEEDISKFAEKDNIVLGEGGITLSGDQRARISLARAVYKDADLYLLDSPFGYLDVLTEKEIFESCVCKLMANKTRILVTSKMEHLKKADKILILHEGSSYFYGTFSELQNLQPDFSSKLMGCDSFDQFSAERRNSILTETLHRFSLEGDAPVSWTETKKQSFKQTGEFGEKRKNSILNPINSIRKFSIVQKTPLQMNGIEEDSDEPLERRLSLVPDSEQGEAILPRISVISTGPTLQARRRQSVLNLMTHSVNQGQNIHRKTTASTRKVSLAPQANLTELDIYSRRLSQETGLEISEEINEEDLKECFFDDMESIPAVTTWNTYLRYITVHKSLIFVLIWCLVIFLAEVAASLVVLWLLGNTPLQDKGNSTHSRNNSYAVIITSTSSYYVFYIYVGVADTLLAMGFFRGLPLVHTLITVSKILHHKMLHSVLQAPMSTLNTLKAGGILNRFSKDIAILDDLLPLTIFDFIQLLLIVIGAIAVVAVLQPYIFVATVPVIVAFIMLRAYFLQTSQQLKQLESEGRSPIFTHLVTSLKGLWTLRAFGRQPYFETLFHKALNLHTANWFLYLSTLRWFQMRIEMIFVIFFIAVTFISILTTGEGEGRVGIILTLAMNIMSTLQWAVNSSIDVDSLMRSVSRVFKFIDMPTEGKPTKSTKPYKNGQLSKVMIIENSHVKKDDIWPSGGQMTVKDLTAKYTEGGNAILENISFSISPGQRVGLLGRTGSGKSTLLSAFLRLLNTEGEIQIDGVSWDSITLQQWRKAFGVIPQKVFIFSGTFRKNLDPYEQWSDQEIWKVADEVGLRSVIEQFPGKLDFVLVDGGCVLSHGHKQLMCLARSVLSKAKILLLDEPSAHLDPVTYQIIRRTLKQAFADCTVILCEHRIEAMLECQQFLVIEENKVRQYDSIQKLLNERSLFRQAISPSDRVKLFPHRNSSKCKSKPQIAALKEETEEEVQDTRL
Protocol: as §1, with “Ussing Chamber Experiments-CFBE41o epithelial cells stably transfected with ΔF508-CFTR or transiently transfected with wild-type CFTR were cultured as electrically resistive monolayers and assayed in Ussing chambers as described (16). ΔF508-CFTR-expressing monolayers were grown at 27° C. for 2-3 days to enhance the surface expression of this temperature-sensitive mutant. A serosal-to-mucosal Cl^− gradient (120 to 1.2 mM) was imposed, followed by amiloride addition (100 μM) to block Na^+ currents. Compounds were added to both chambers at the indicated concentrations. A 3-mV voltage pulse was imposed every 100 s to monitor transepithelial resistance.” left out

ΔF508-CFTR [1] = target: T2, ΔF508-CFTR (Homo sapiens, UniProt P13569, DEL508-508); experiment: Macroscopic currents in excised patches from temperature-corrected HEK-293T cells expressing ΔF508-CFTR; format: biochemical
T2 construct: expressed in transfected cells; host or cells: HEK-293T, transient; grown at 28° C. for 24 hrs
T2 sequence (P13569 with tags, fused parts or gaps DEL508-508): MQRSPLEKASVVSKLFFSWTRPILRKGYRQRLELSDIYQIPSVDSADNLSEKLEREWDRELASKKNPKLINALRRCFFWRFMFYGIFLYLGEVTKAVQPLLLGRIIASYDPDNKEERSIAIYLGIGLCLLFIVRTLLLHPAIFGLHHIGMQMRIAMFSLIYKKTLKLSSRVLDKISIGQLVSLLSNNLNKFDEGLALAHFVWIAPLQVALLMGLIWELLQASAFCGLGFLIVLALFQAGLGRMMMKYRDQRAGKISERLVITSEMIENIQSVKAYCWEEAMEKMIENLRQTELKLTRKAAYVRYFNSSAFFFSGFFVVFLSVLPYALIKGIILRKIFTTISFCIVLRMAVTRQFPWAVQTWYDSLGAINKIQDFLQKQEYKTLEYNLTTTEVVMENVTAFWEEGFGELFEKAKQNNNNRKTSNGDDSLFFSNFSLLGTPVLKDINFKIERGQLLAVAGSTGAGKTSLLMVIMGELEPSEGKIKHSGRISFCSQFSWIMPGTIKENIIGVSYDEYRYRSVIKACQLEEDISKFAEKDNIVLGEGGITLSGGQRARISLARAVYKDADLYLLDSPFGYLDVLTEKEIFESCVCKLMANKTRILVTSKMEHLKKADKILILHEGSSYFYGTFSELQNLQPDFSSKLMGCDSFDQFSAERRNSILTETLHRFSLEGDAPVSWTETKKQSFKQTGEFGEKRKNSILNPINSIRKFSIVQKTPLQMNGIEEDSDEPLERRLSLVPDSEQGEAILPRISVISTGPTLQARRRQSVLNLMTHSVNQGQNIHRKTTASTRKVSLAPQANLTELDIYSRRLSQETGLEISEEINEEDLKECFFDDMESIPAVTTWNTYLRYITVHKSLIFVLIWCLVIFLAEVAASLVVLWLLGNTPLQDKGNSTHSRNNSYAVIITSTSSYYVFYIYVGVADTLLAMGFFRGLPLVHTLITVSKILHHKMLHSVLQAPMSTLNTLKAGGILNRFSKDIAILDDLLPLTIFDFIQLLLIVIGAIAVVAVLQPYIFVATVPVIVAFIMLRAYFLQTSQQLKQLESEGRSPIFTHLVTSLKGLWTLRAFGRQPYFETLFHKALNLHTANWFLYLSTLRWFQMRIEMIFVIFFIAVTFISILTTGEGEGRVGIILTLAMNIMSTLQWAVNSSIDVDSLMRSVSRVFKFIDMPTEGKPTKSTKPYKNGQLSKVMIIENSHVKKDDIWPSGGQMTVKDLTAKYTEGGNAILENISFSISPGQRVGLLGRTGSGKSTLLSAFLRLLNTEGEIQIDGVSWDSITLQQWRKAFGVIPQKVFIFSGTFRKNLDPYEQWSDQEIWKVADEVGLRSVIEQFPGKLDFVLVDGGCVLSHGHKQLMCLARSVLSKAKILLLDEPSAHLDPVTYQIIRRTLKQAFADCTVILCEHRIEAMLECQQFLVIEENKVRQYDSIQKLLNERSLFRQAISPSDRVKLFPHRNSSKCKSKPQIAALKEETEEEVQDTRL
Protocol: as §1

ΔF508-CFTR [2] = target: T2, ΔF508-CFTR; experiment: Ussing chamber transepithelial chloride currents, temperature-corrected ΔF508-CFTR CFBE41o- monolayers; format: cell-based
Protocol: as §1

wild-type CFTR [3] = target: T3, wild-type CFTR (Homo sapiens, UniProt P13569); experiment: Micropatch (multichannel) recording of BHK-CFTR patches, opening rate and Po; format: biochemical; design: expressed in transfected cells; provided by J. Hanrahan (McGill University)
T3 sequence (P13569 whole entry): as the sequence (P13569 whole entry G551D) above, with D551G counted along it
Protocol: as §1, with “CFTR channels were activated following patch excision by exposure of the cytoplasmic face of the patch to catalytic subunit of protein kinase A (PKA; 110 U/ml; Promega) and Mg-ATP (1.5 mM).” left out, “Ussing Chamber Experiments-CFBE41o epithelial cells stably transfected with ΔF508-CFTR or transiently transfected with wild-type CFTR were cultured as electrically resistive monolayers and assayed in Ussing chambers as described (16). ΔF508-CFTR-expressing monolayers were grown at 27° C. for 2-3 days to enhance the surface expression of this temperature-sensitive mutant. A serosal-to-mucosal Cl^− gradient (120 to 1.2 mM) was imposed, followed by amiloride addition (100 μM) to block Na^+ currents. Compounds were added to both chambers at the indicated concentrations. A 3-mV voltage pulse was imposed every 100 s to monitor transepithelial resistance.” left out

wild-type CFTR [4] = target: T3, wild-type CFTR; experiment: Macroscopic currents in excised patches from wild-type CFTR-transfected HEK-293T cells; format: biochemical; design: expressed in transfected cells; host or cells: HEK-293T, transient (Lipofectamine); details: 10 μM; 1.5 mM Mg-ATP and 110 U/ml PKA
Protocol: (§2) Cell culture DNA constructs and transfections. Baby hamster kidney (BHK) cells stably expressing wild type human CFTR (BHK-CFTR) were provided by J. Hanrahan (McGill University). BHK-CFTR cells were cultured in Dulbecco's modified Eagle's medium (DMEM (Mediatech)) supplemented with 5% fetal bovine serum (FBS) and 1 mM penicillin-streptomycin. The growth media for the BHK-CFTR cells also contained 0.5 mM methotrexate to maintain selection for CFTR-expressing cells (22). HEK-293T cells were transiently transfected with wild-type or mutant CFTR cDNA using the Lipofectamine transfection kit following manufacturer's recommendations (Invitrogen, Corp). HEK-293T cells were cultured in DMEM. All cells were grown on plastic coverslips for patch clamp recording and were used 2-3 days post-seeding. Electrophysiology and data analysis. Macroscopic and multi-channel currents were recorded in the excised, inside-out configuration. Patch pipettes were pulled from Corning 8161 glass to tip resistances of […] (macroscopic recordings) or 8-10 mOhm (micropatch studies). CFTR channels were activated following patch excision by exposure of the cytoplasmic face of the patch to catalytic subunit of protein kinase A (PKA; 110 U/ml; Promega) and Mg-ATP (1.5 mM). CFTR currents were recorded in symmetrical solution containing (in mM): 140 N-methyl-D-glucaniine-Cl, 3 MgCl2, 1 EGTA and 10 TES. […]

wild-type CFTR [5] = target: T3, wild-type CFTR; experiment: Ussing chamber transepithelial chloride currents, wild type CFTR-expressing CFBE41o- monolayers; format: cell-based; design: expressed in transfected cells; host or cells: HEK-293T, transient (Lipofectamine); details: 120 nM to 12 μM
Protocol: as §2

[6] = 10 μM, poorly phosphorylated, −80 mV, best guess estimate, mean±S.E., n=7

NC(=O)c1cc([N+](=O)[O-])ccc1NCCCc1ccccc1 [NPPB-Am]
effect on currents across membrane patches excised from CFTR-minus cells (CFTR-minus cells; data not shown): no effect | effect on currents across a patch from untransfected HEK-293T cells (CFTR-minus cells; untransfected HEK-293T): neither | effect on G551D-CFTR activity (G551D-CFTR): only modestly stimulated | increase in ΔF508-CFTR macroscopic currents (ΔF508-CFTR [1]; 10 μM, 1.5 mM Mg-ATP and 110 U/ml PKA): 10-15 fold | effect on ΔF508-CFTR macroscopic currents (ΔF508-CFTR [1]; 10 μM, high PKA 110 U/ml without PKI): dramatically stimulated | effect on ΔF508-CFTR channel activity in the absence of active kinase (ΔF508-CFTR [1]; added after PKI): markedly stimulated | effect on transepithelial currents without cAMP agonist (ΔF508-CFTR [2]; 120 nM to 12 μM): stimulated the transepithelial currents | potentiation of the forskolin effect on ΔF508-CFTR transepithelial currents (ΔF508-CFTR [2]; 1 μM compound with 1 μM forskolin, N=8-12): markedly potentiated the effect of forskolin | stimulated transepithelial current with H89 (ΔF508-CFTR [2]; prior treatment with H89 100 μM, n=4, monolayer type (wild-type or ΔF508) not stated): 5.5+/−1.3 μA/cm^2 | stimulated transepithelial current without H89 (ΔF508-CFTR [2]; −H89, n=4, monolayer type (wild-type or ΔF508) not stated): 23.3+/−2.0 μA/cm^2 | mean single channel opening rate, post compound (wild-type CFTR [3]; [6]): 1.07±0.29 openings/s/channel | single channel Po, post compound (wild-type CFTR [3]; [6]): 0.26±0.06 | effect on opening rates and mean single channel open probabilities (Pos) (wild-type CFTR [3]; poorly phosphorylated (2 U/ml PKA), fewer than 10 channels per patch): markedly increased the opening rates and mean single channel open probabilities | stimulation of the activity of the wild-type channel (wild-type CFTR [4]): 1.5-2 fold | effect on transepithelial currents without cAMP agonist (wild-type CFTR [5]): stimulated the transepithelial currents

Reference: patent US20080146669A1, “Novel Chloride Channel Pore Openers” (THE UAB RESEARCH FOUNDATION, priority 2005, published 2008)
